Common to all, as to type: biochemical
One experiment concerns the target T1, NUAK2 (Homo sapiens, UniProt Q9H093).
T1 construct: made in house; host or cells: HEK-293 cells, transient transfection of pEBG2T construct
T1 sequence (Q9H093 1-628): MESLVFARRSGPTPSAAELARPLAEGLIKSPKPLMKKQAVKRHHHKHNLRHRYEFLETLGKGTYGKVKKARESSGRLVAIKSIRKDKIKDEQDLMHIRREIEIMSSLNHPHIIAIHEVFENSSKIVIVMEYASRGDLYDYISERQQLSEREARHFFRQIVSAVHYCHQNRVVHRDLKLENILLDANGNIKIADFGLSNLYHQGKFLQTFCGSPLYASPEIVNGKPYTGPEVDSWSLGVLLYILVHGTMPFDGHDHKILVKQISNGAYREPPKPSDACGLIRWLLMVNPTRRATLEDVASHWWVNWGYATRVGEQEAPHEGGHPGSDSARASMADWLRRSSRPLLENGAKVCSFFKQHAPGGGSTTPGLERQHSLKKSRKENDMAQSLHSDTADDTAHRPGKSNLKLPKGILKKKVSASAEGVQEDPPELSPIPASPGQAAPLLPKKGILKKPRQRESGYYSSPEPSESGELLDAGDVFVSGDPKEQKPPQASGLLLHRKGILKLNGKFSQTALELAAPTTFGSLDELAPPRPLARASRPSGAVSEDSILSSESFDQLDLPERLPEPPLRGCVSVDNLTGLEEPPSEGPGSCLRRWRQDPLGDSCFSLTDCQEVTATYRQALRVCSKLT
Put plainly: GST–NUAK2 Sakamototide peptide kinase assay. Particulars: for IC50: 200 μM Sakamototide, 100 μM [γ-32P]ATP; for Inhibition of NUAK2 (in words): results not shown. As for the experimental part: Active GST–NUAK1, GST–NUAK1[A195T] and GST–NUAK2 enzymes were purified using glutathione–Sepharose from HEK-293 cell lysates 36–48 h following the transient transfection of pEBG2T mammalian constructs expressing N-terminal GST-tagged NUAK1, NUAK1[A195T] or NUAK2. For peptide kinase assays, 96-well plates were used, and each reaction was performed in triplicate. Each reaction was set up in a total volume of 50 μl containing 100 ng of NUAK1 (wild-type or A195T mutant) or NUAK2 in 50 mM Tris/HCl (pH 7.5), 0.1 mM EGTA, 10 mM magnesium acetate, 200 μM Sakamototide, 0.1 mM [γ-^32P]ATP (450–500 c.p.m./pmol) and the indicated concentrations of inhibitors dissolved in DMSO. After incubation for 30 min at 30°C, reactions were terminated by adding 25 mM (final) EDTA to chelate the magnesium. Then, 40 μl of the reaction mix was spotted on to P81 paper and immersed in 50 mM orthophosphoric acid. Samples were washed three times in 50 mM orthophosphoric acid followed by a single acetone rinse and air drying. The incorporation of [γ-^32P]ATP into Sakamototide was quantified by Cerenkov counting. The values were expressed as a percentage of the DMSO control. IC50 curves were developed and IC50 values were calculated using GraphPad Prism software.

Another experiment deals with JAK2 (Homo sapiens, UniProt O60674). Put plainly: Kinase profiling. The following applies: for JAK2 activity, percentage of DMSO control: 0.1 or 1 μM inhibitor, mean of triplicate; for Inhibition of JAK2 in profiling (in words): 1 μM. As for the experimental part:
(§1) Kinase inhibitor specificity profiling assays were carried out at The International Centre for Protein Kinase Profiling (http://www.kinase-screen.mrc.ac.uk/) against a panel of 140 protein kinases as described previously. Results are presented as a percentage of kinase activity in DMSO control reactions. Protein kinases were assayed in vitro with 0.1 or 1 μM of the inhibitors and the results are presented as an average of triplicate reactions±S.D. or in the form of comparative histograms.

The target in another experiment is ABL (Homo sapiens, UniProt P00519). Put plainly: Kinase profiling. Particulars: for ABL activity, percentage of DMSO control: 0.1 or 1 μM inhibitor, mean of triplicate; for Inhibition of ABL in profiling (in words): 1 μM. As for the experimental part: as §1
Another experiment has as its target Aurora B (Homo sapiens, UniProt Q96GD4). Put plainly: Kinase profiling. The following applies: for Aurora B activity, percentage of DMSO control: 0.1 or 1 μM inhibitor, mean of triplicate; for Inhibition of Aurora B in profiling (in words; Aurora isoforms): 1 μM. As for the experimental part:
as §1

The next experiment deals with T2, BRSK1 (Homo sapiens, UniProt Q8TDC3).
T2 sequence (Q8TDC3 1-778): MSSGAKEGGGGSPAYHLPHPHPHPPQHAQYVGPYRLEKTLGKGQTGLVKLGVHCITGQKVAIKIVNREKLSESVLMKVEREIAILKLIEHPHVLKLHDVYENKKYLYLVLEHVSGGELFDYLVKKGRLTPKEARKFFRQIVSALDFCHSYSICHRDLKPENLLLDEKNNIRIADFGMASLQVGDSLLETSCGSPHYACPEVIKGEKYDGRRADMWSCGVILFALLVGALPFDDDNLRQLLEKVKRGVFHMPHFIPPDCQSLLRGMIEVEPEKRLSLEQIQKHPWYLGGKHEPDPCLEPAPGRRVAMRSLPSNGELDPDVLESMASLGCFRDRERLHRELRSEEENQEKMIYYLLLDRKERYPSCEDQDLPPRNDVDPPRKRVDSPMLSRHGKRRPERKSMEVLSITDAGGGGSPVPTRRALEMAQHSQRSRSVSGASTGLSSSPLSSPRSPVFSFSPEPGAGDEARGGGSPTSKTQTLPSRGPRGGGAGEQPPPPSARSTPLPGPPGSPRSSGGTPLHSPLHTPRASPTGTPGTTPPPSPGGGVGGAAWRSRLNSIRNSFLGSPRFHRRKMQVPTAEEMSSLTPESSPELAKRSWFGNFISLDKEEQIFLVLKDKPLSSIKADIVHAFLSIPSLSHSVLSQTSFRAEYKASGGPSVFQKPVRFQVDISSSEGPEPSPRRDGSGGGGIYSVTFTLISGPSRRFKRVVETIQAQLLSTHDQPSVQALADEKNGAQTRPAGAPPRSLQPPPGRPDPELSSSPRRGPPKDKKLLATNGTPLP
Put plainly: Kinase profiling. Particulars: for BRSK1 activity, percentage of DMSO control: 0.1 or 1 μM inhibitor, mean of triplicate. As to the method: as §1

In another experiment the target is T3, Aurora A (Homo sapiens, UniProt O14965).
T3 sequence (O14965 1-403): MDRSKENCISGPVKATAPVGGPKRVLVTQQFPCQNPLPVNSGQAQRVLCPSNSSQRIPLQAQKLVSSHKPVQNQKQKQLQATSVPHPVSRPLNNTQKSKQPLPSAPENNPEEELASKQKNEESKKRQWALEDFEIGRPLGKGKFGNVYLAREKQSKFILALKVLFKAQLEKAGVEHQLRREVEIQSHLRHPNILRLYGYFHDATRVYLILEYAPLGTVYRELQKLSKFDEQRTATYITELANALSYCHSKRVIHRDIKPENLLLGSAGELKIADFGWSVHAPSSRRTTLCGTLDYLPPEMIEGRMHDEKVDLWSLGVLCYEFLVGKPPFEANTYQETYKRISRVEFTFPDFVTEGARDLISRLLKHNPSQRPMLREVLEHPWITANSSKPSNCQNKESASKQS
Put plainly: Kinase profiling. The following applies: for Inhibition of Aurora A in profiling (in words; Aurora isoforms): 1 μM. As to the method:
as §1

Each structure is given as a SMILES string. Like-named read-outs stand apart in the source and are kept apart here. Some results are limits rather than exact numbers.

ABL, sequence (P00519 whole entry, canonical isoform): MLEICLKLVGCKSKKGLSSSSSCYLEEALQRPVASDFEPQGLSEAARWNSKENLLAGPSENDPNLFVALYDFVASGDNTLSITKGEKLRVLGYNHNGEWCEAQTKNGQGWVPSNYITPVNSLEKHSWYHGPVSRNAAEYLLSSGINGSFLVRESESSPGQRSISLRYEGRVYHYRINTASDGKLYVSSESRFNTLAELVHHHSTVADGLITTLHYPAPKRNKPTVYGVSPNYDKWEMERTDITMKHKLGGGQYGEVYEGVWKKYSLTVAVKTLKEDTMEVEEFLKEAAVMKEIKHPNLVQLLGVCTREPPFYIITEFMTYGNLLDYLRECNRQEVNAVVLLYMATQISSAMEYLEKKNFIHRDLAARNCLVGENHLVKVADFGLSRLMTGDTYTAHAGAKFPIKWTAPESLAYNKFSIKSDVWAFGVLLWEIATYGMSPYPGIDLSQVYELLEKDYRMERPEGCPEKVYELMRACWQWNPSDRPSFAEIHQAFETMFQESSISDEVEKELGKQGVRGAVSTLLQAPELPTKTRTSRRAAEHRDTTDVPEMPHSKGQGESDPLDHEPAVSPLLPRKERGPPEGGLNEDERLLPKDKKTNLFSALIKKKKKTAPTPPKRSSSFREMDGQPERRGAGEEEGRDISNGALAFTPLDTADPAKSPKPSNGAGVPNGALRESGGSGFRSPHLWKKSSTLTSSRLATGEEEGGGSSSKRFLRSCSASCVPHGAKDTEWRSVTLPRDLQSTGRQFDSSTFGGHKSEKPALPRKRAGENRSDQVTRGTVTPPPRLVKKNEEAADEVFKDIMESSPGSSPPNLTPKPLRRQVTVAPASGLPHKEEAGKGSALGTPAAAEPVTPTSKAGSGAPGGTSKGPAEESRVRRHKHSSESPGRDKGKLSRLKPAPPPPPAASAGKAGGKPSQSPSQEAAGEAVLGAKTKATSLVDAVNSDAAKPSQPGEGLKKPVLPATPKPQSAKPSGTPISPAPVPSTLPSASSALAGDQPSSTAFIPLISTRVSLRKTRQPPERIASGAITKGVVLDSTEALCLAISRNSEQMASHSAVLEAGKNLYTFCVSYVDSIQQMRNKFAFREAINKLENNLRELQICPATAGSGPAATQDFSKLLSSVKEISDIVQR
JAK2, sequence (O60674 whole entry): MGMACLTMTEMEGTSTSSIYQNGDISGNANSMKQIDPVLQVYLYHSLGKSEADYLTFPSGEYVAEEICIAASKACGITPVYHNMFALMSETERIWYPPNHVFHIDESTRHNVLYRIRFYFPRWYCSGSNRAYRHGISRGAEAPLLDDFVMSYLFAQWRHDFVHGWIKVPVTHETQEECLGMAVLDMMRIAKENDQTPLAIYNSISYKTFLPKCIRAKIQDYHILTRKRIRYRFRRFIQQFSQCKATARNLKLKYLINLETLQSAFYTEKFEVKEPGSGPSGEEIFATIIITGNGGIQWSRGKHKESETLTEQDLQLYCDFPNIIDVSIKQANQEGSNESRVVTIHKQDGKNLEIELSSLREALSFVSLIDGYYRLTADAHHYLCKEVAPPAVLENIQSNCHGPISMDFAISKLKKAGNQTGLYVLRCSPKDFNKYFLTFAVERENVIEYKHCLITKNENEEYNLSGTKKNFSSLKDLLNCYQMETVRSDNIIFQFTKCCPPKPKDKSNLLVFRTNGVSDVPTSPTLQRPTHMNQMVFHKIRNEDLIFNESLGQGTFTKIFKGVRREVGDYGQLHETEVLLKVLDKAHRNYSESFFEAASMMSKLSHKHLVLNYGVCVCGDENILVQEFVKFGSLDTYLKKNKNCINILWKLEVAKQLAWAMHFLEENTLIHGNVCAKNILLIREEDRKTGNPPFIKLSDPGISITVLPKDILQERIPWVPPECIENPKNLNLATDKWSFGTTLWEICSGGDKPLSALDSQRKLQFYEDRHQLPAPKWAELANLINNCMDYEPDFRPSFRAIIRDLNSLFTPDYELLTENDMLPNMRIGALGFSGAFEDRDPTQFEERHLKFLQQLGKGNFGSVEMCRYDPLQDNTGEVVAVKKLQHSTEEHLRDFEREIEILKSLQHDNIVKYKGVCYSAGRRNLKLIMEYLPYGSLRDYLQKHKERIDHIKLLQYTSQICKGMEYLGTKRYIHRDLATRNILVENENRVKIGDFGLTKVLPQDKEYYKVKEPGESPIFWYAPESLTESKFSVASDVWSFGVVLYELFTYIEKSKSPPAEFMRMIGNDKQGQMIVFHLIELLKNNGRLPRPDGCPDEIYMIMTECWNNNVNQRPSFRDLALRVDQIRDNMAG
Aurora B, sequence (Q96GD4 whole entry, canonical isoform): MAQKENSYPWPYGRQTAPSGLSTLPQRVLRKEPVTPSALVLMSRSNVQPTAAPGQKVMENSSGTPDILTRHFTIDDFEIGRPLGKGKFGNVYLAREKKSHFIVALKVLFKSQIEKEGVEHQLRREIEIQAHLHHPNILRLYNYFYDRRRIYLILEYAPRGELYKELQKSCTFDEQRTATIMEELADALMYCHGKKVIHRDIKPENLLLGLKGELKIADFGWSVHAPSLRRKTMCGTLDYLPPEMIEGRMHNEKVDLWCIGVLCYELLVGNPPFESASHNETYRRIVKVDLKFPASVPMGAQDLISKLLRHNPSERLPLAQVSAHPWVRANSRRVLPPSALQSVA

Turning to `Cc1nc(Nc2cnn(C3CCNCC3)c2)nc2c1N(C)C(=O)c1cc3ccccc3cc1N2C` [HTH-01-015], at NUAK2 (bound given in text, read-out: IC50 for NUAK2), the IC50 was > 10 µM. Moreover, the “Higher potency for NUAK1 than NUAK2” value at NUAK2 (NUAK1 versus NUAK2) is recorded as > 100 fold. Besides, the “JAK2 activity, percentage of DMSO control” value on JAK2 was 101 percentage. Besides, the “ABL activity, percentage of DMSO control” value at ABL was found to be 110 percentage. Also, the “Aurora B activity, percentage of DMSO control” value at Aurora B was determined as 97 percentage. In addition, the “BRSK1 activity, percentage of DMSO control” value on BRSK1 is on record as 130 percentage. The “Aurora A activity, percentage of DMSO control” value at Aurora A (0.1 or 1 μM inhibitor, mean of triplicate) is 117 percentage.

Regarding `CCC(=O)Nc1cccc(Oc2nc(Nc3ccc(N4CCN(C)CC4)cc3OC)ncc2Cl)c1` [WZ4003], the IC50 at NUAK2 (read-out: IC50 for NUAK2 (wild-type GST–NUAK2)) was determined as 0.1 µM. The “JAK2 activity, percentage of DMSO control” value on JAK2 is listed as 65 percentage. Further, the “ABL activity, percentage of DMSO control” value at ABL is listed as 104 percentage. Moreover, at Aurora B, the “Aurora B activity, percentage of DMSO control” value worked out at 72 percentage. In addition, the “BRSK1 activity, percentage of DMSO control” value at BRSK1 worked out at 91 percentage.

As for `CN1C(=O)c2ccccc2N(C)c2nc(Nc3cnn(C4CCNCC4)c3)ncc21` [XMD-17-51], the “Inhibition of NUAK2 (in words)” value on NUAK2 is reported as “Neither compound significantly inhibited”. Further, the “Inhibition of JAK2 in profiling (in words)” value at JAK2 is “inhibited”. Besides, at ABL, the “Inhibition of ABL in profiling (in words)” value is reported as “inhibited”. For the same compound, the “Inhibition of Aurora B in profiling (in words; Aurora isoforms)” value at Aurora B was “inhibited”. For the same compound, at BRSK1 (1 μM), the “Inhibition of BRSK1 in profiling (in words)” value is listed as “inhibited”. The “Inhibition of Aurora A in profiling (in words; Aurora isoforms)” value at Aurora A is given as “inhibited”.

As to `CN1C(=O)c2cc3ccccc3cc2N(C)c2nc(Nc3cnn(C4CCNCC4)c3)ncc21` [XMD-18-42], on NUAK2, the “Inhibition of NUAK2 (in words)” value is “Neither compound significantly inhibited”. Also, on JAK2, the “Inhibition of JAK2 in profiling (in words)” value is “inhibited”. Moreover, at ABL, the “Inhibition of ABL in profiling (in words)” value was “inhibited”. The “Inhibition of Aurora B in profiling (in words; Aurora isoforms)” value at Aurora B was “inhibited”. In addition, the “Inhibition of Aurora A in profiling (in words; Aurora isoforms)” value at Aurora A is on record as “inhibited”.

For orientation: IC50 means the concentration that gives 50% inhibition.
